Measurements published in article PMC7832085 (Journal of medicinal chemistry, 2016).

Tests used:
recombinant human TDP2 = target: T1, recombinant human TDP2 (Homo sapiens, UniProt O95551); experiment: Recombinant TDP2 assay; format: biochemical; details: for Inhibition of recombinant TDP2 (in words): recombinant human TDP2, concentrations up to 111 μM
T1 sequence (O95551 1-362): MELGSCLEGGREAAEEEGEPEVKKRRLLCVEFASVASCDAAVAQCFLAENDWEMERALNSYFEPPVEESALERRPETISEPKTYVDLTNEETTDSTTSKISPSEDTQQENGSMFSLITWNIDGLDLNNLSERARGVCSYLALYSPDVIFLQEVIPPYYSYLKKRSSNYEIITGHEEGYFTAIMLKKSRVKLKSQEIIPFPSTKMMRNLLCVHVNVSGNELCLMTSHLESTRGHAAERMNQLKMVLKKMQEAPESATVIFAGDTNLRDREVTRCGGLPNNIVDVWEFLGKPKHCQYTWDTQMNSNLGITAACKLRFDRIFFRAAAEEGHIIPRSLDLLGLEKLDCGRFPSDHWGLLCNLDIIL

TDP1 = TDP1 (Homo sapiens, UniProt Q9NUW8); experiment: TDP1 counter assay; format: biochemical; details: highest testing concentration 111 μM
Sequence of TDP1 (Q9NUW8 whole entry): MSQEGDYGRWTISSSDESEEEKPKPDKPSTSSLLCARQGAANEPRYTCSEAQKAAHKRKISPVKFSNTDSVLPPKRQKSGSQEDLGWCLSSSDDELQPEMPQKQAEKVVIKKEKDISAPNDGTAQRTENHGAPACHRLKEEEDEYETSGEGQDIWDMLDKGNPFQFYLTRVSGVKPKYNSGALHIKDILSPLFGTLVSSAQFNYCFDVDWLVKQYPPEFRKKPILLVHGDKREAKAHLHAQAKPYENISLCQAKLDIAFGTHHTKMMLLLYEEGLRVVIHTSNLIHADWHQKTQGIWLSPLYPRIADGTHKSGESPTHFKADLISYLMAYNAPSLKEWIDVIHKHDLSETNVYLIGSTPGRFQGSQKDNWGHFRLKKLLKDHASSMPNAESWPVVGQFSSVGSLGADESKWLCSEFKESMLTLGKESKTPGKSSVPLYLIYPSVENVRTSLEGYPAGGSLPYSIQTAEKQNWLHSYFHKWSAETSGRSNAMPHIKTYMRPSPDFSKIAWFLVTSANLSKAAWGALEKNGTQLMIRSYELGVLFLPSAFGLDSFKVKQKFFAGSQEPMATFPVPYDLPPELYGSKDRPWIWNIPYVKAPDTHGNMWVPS

hTDP2 DT40 cells = format: cell-based; details: different concentrations of EPT
[1] = target: T2, human TDP2 (hTDP2) whole cell extracts (Homo sapiens, UniProt O95551); experiment: Whole cell extract; format: biochemical
T2 sequence (O95551 1-362): T1 sequence (O95551 1-362)

SMILES	Inhibition of recombinant TDP2 (in words) (recombinant human TDP2)	Synergy in combination with ETP (hTDP2 DT40 cells)	also measured
O=C1Cc2cccc(-c3cccc([N+](=O)[O-])c3)c2C(=O)N1 [Compound 57, 8-(3-Nitrophenyl)isoquinoline-1,3(2H,4H)-dione]	substantially reduced inhibitory activity		
O=C1Cc2cc(-c3ccco3)ccc2C(=O)N1 [Compound 43, 6-(Furan-2-yl)isoquinoline-1,3 (2H,4H)-dione]		not observed	IC50 (recombinant human TDP2): 8.5 µM; Inhibition of TDP1 (counter assay) (TDP1): no inhibition
O=C1Cc2cc(-c3nc4ccccc4s3)ccc2C(=O)N1 [Compound 84]		not observed	
O=C1Cc2cccc(-c3cccc(O)c3)c2C(=O)N1 [Compound 53, 8-(3-Hydroxyphenyl)isoquinoline-1,3(2H,4H)-dione]	substantially reduced inhibitory activity		
O=C1Cc2cc(-c3ccco3)ccc2C(=O)N1O [Compound 46, 6-(Furan-2-yl)-2-hydroxyisoquinoline-1,3(2H,4H)-dione]	inactive		Inhibition of endogenous TDP2 in WCE (in words) [1]: inactive
O=C1Cc2ccc(C(=O)O)cc2C(=O)N1 [Compound 40, 1,3-Dioxo-1,2,3,4-tetrahydroisoquinoline-7-carboxylic Acid]		not observed	
O=C1Cc2c(cccc2-c2cccc([N+](=O)[O-])c2)C(=O)N1 [Compound 58, 5-(3-Nitrophenyl)isoquinoline-1,3(2H,4H)-dione]	inactive		
O=C1Cc2cc(I)ccc2C(=O)N1 [Compound 36, 6-Iodoisoquinoline-1,3(2H,4H)-dione]		not observed	
O=C1Cc2c(Br)cccc2C(=O)N1 [Compound 34, 5-Bromoisoquinoline-1,3(2H,4H)-dione]	inactive		
O=C1Cc2c(cccc2-c2ccco2)C(=O)N1 [Compound 45, 5-(Furan-2-yl)isoquinoline-1,3(2H,4H)-dione]	inactive		
